Source: patent US20230024302A1, “2,3,5-TRISUBSTITUTED PYRAZOLO[1,5-A]PYRIMIDINE COMPOUNDS” (Arcus Biosciences, Inc., priority 2019, published 2023)

What was measured:
[1] = target: T1, PI3Kγ (Homo sapiens, UniProt P48736); experiment: PI3Kγ cellular assay in THP-1 cells (AKT pS473 AlphaLISA); format: cell-based; conditions: Table 1, rhMCP-1 stimulated AKT pS473, read-out: cellular potency (PI3Kγ IC50)
T1 construct: host or cells: THP-1
Procedure, shortened: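 Serum-starved THP-1 cells (1.8×10^5/well, serum-free DMEM) treated with compounds from 4 nM to 30 μM in 2% DMSO, then stimulated and lysed.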

[2] = target: T2, PI3Kγ (p120γ) (Homo sapiens, UniProt P48736); experiment: Inhibition of PI3K kinase activity (ADP Glo), PI3Kγ; conditions: Table 1, p120γ, read-out: biochemical potency (PI3Kγ IC50)
T2 construct: purchased Promega V1761
T2 sequence (P48736 whole entry): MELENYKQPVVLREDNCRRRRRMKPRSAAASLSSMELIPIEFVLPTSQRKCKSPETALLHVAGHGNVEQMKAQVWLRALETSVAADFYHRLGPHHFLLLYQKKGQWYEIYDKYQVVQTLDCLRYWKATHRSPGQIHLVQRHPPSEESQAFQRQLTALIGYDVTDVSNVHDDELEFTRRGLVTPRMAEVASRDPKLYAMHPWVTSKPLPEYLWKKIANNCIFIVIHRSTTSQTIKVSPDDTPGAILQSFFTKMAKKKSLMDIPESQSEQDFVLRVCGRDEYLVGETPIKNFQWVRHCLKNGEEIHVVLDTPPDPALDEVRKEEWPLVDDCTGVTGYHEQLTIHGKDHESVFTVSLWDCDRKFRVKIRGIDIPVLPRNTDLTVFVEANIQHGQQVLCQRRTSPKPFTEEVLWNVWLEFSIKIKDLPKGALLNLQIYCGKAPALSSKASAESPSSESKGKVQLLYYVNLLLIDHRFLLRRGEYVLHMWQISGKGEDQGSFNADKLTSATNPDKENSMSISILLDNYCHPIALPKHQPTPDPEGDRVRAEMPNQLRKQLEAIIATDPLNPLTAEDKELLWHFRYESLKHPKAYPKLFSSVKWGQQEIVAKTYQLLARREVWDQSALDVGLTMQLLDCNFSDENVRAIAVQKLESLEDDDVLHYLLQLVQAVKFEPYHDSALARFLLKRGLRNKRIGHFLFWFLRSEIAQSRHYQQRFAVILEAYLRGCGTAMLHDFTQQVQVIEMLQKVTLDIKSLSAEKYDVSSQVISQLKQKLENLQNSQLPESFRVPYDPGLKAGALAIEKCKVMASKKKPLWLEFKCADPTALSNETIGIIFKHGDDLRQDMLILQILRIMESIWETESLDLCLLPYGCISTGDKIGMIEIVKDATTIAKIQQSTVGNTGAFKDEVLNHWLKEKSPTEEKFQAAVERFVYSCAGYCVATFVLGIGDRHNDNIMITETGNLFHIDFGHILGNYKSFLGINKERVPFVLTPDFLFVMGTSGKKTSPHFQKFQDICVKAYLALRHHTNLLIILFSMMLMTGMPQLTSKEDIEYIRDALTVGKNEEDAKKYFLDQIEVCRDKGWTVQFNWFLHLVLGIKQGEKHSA
Procedure, shortened: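 Recombinant p120γ (8 nM, 2× stock) was preincubated with compound for 1 h at rt in HEPES pH 7.4, NaCl, MgCl2 and 0.05% BSA. Reaction was started with PIP2 (0.1 mg/ml, 2×) and ATP (50 μM, 2×) and ran 60 min at rt. ADP formed was read by ADP-Glo luminescence, and IC50 came from a 4-parameter fit.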

T1 sequence (P48736 whole entry): as above

IC50 [1]	IC50 [2]	SMILES
< 0.1 µM	< 0.1 µM	C[C@H](N1Cc2cc(-c3ccn4nc(N)c(C(=O)NC5CC5)c4n3)cc(NS(C)(=O)=O)c2C1=O)C(F)(F)F [Example 115, 2-Amino-N-cyclopropyl-5-{7-methanesulfonamido-1-oxo-2-[(2S)-1,1,1-trifluoropropan-2-yl]-2,3-dihydro-1H-isoindol-5-yl}pyrazolo[1,5-a]pyrimidine-3-carboxamide]
< 0.1 µM	< 0.1 µM	C[C@H](N1Cc2cc(-c3ccn4nc(N)c(C(=O)NC5COC5)c4n3)cc(NS(C)(=O)=O)c2C1=O)C(F)(F)F [Example 116, 2-Amino-5-{7-methanesulfonamido-1-oxo-2-[(2S)-1,1,1-trifluoropropan-2-yl]-2,3-dihydro-1H-isoindol-5-yl}-N-(oxetan-3-yl)pyrazolo[1,5-a]pyrimidine-3-carboxamide]
< 0.1 µM	< 0.1 µM	C[C@H](N1Cc2cc(-c3ccn4nc(N)c(C(=O)NC5(C#N)COC5)c4n3)cc(NS(C)(=O)=O)c2C1=O)C(F)(F)F [Example 117, (S)-2-Amino-N-(3-cyanooxetan-3-yl)-5-(7-(methylsulfonamido)-1-oxo-2-(1,1,1-trifluoropropan-2-yl)isoindolin-5-yl)pyrazolo[1,5-a]pyrimidine-3-carboxamide]
< 0.1 µM	< 0.1 µM	C[C@H](CO)NC(=O)c1c(N)nn2ccc(-c3cc4c(c(NS(C)(=O)=O)c3)C(=O)N([C@@H](C)C(F)(F)F)C4)nc12 [Example 118, 2-Amino-N-[(2R)-1-hydroxypropan-2-yl]-5-{7-methanesulfonamido-1-oxo-2-[(2S)-1,1,1-trifluoropropan-2-yl]-2,3-dihydro-1H-isoindol-5-yl}pyrazolo[1,5-a]pyrimidine-3-carboxamide]
< 0.1 µM	< 0.1 µM	CC[C@H](CO)NC(=O)c1c(N)nn2ccc(-c3cc4c(c(NS(C)(=O)=O)c3)C(=O)N([C@@H](C)C(F)(F)F)C4)nc12 [Example 119, 2-Amino-N-[(2R)-1-hydroxybutan-2-yl]-5-{7-methanesulfonamido-1-oxo-2-[(2S)-1,1,1-trifluoropropan-2-yl]-2,3-dihydro-1H-isoindol-5-yl}pyrazolo[1,5-a]pyrimidine-3-carboxamide]
< 0.1 µM	< 0.1 µM	C[C@H](N1Cc2cc(-c3ccn4nc(N)c(C(=O)N[C@@H](CO)C5CC5)c4n3)cc(NS(C)(=O)=O)c2C1=O)C(F)(F)F [Example 120, 2-Amino-N-((R)-1-cyclopropyl-2-hydroxyethyl)-5-(7-(methylsulfonamido)-1-oxo-2-((S)-1,1,1-trifluoropropan-2-yl)isoindolin-5-yl)pyrazolo[1,5-a]pyrimidine-3-carboxamide]
< 0.1 µM	< 0.1 µM	C[C@H](N1Cc2cc(-c3ccn4nc(N)c(C(=O)N[C@H]5C[C@H](O)C5)c4n3)cc(NS(C)(=O)=O)c2C1=O)C(F)(F)F [Example 121, 2-Amino-5-{7-methanesulfonamido-1-oxo-2-[(2S)-1,1,1-trifluoropropan-2-yl]-2,3-dihydro-1H-isoindol-5-yl}-N-[trans-3-hydroxycyclobutyl]pyrazolo[1,5-a]pyrimidine-3-carboxamide]
< 0.1 µM	< 0.1 µM	C[C@H](N1Cc2cc(-c3ccn4nc(N)c(C(=O)N[C@H]5CC[C@@](C)(O)CC5)c4n3)cc(NS(C)(=O)=O)c2C1=O)C(F)(F)F [Example 122, 2-Amino-5-{7-methanesulfonamido-1-oxo-2-[(2S)-1,1,1-trifluoropropan-2-yl]-2,3-dihydro-1H-isoindol-5-yl}-N-[cis-4-hydroxy-4-methylcyclohexyl]pyrazolo[1,5-a]pyrimidine-3-carboxamide]
< 0.1 µM	< 0.1 µM	CC[C@H](N1Cc2cc(-c3ccn4nc(N)c(C(=O)NC5COC5)c4n3)cc(NS(C)(=O)=O)c2C1=O)C(F)(F)F [Example 123, 2-Amino-5-{7-methanesulfonamido-1-oxo-2-[(2S)-1,1,1-trifluorobutan-2-yl]-2,3-dihydro-1H-isoindol-5-yl}-N-(oxetan-3-yl)pyrazolo[1,5-a]pyrimidine-3-carboxamide]
< 0.1 µM	< 0.1 µM	CC[C@H](N1Cc2cc(-c3ccn4nc(N)c(C(=O)NC5CC5)c4n3)cc(NS(C)(=O)=O)c2C1=O)C(F)(F)F [Example 124, 2-Amino-N-cyclopropyl-5-{7-methanesulfonamido-1-oxo-2-[(2S)-1,1,1-trifluorobutan-2-yl]-2,3-dihydro-1H-isoindol-5-yl}pyrazolo[1,5-a]pyrimidine-3-carboxamide]
< 0.1 µM	< 0.1 µM	CC[C@H](N1Cc2cc(-c3ccn4nc(N)c(C(=O)NC5(C)COC5)c4n3)cc(NS(C)(=O)=O)c2C1=O)C(F)(F)F [Example 125, 2-Amino-5-{7-methanesulfonamido-1-oxo-2-[(2S)-1,1,1-trifluorobutan-2-yl]-2,3-dihydro-1H-isoindol-5-yl}-N-(3-methyloxetan-3-yl)pyrazolo[1,5-a]pyrimidine-3-carboxamide]
< 0.1 µM	< 0.1 µM	CC[C@H](N1Cc2cc(-c3ccn4nc(N)c(C(=O)N[C@H]5C[C@H](C(C)(C)O)C5)c4n3)cc(NS(C)(=O)=O)c2C1=O)C(F)(F)F [Example 126, 2-Amino-5-{7-methanesulfonamido-1-oxo-2-[(2S)-1,1,1-trifluorobutan-2-yl]-2,3-dihydro-1H-isoindol-5-yl}-N-[trans-3-(2-hydroxypropan-2-yl)cyclobutyl]pyrazolo[1,5-a]pyrimidine-3-carboxamide]
< 0.1 µM	< 0.1 µM	CC[C@H](N1Cc2cc(-c3ccn4nc(N)c(C(=O)N[C@H]5CC[C@](C)(O)CC5)c4n3)cc(NS(C)(=O)=O)c2C1=O)C(F)(F)F [Example 127, 2-Amino-5-{7-methanesulfonamido-1-oxo-2-[(2S)-1,1,1-trifluorobutan-2-yl]-2,3-dihydro-1H-isoindol-5-yl}-N-[trans-4-hydroxy-4-methylcyclohexyl]pyrazolo[1,5-a]pyrimidine-3-carboxamide]
< 0.1 µM	< 0.1 µM	CS(=O)(=O)Nc1cc(-c2ccn3nc(N)c(C(=O)NC4CC4)c3n2)cc2c1C(=O)N([C@@H](C1CC1)C(F)(F)F)C2 [Example 128, 2-Amino-N-cyclopropyl-5-{2-[(1S)-1-cyclopropyl-2,2,2-trifluoroethyl]-7-methanesulfonamido-1-oxo-2,3-dihydro-1H-isoindol-5-yl}pyrazolo[1,5-a]pyrimidine-3-carboxamide]
< 0.1 µM	< 0.1 µM	CS(=O)(=O)Nc1cc(-c2ccn3nc(N)c(C(=O)NC4CC4)c3n2)cc2c1C(=O)N([C@H](C1CC1)C(F)(F)F)C2 [Example 129, 2-Amino-N-cyclopropyl-5-{2-[(1R)-1-cyclopropyl-2,2,2-trifluoroethyl]-7-methanesulfonamido-1-oxo-2,3-dihydro-1H-isoindol-5-yl}pyrazolo[1,5-a]pyrimidine-3-carboxamide]
< 0.1 µM	< 0.1 µM	C[C@@H](C1CC1)N1Cc2cc(-c3ccn4nc(N)c(C(=O)Nc5cnn(C)c5)c4n3)cc(S(C)(=O)=O)c2C1=O [Example 130, 2-Amino-5-{2-[(1S)-1-cyclopropylethyl]-7-methanesulfonyl-1-oxo-2,3-dihydro-1H-isoindol-5-yl}-N-(1-methyl-1H-pyrazol-4-yl)pyrazolo[1,5-a]pyrimidine-3-carboxamide]
